PubChem BioAssay (NCI)
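A five-concentration, 48-hour dose response in 96-well plates underlies each endpoint, interpolated linearly between surrounding concentrations. GI50 is the concentration that inhibits growth by half. The concentration for full growth arrest is given as TGI.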

Key:
Assay in all cases: growth of human tumour cells (NCI), 48 h
M14 melanoma = tested on: M14 melanoma
MDA-MB-435 = tested on: MDA-MB-435
NCI-H460 lung = tested on: NCI-H460 lung
T-47D breast = tested on: T-47D breast
HCC-2998 colon = tested on: HCC-2998 colon
TK-10 renal = tested on: TK-10 renal
ACHN renal = tested on: ACHN renal
OVCAR-3 ovarian = tested on: OVCAR-3 ovarian
MALME-3M melanoma = tested on: MALME-3M melanoma
UACC-257 melanoma = tested on: UACC-257 melanoma
U251 CNS = tested on: U251 CNS
SNB-19 CNS = tested on: SNB-19 CNS
KM12 colon = tested on: KM12 colon
MOLT-4 leukemia = tested on: MOLT-4 leukemia
BT-549 breast = tested on: BT-549 breast
HOP-92 NSCLC = tested on: HOP-92 NSCLC
HT29 colon = tested on: HT29 colon
OVCAR-5 ovarian = tested on: OVCAR-5 ovarian
NCI-H522 lung = tested on: NCI-H522 lung
OVCAR-4 ovarian = tested on: OVCAR-4 ovarian
PC-3 prostate = tested on: PC-3 prostate
SN12C renal = tested on: SN12C renal
K-562 leukemia = tested on: K-562 leukemia
SK-MEL-5 melanoma = tested on: SK-MEL-5 melanoma
SK-MEL-2 melanoma = tested on: SK-MEL-2 melanoma
SF-539 CNS = tested on: SF-539 CNS
CAKI-1 renal = tested on: CAKI-1 renal
HS 578T breast = tested on: HS 578T breast
HOP-62 NSCLC = tested on: HOP-62 NSCLC
COLO 205 colon = tested on: COLO 205 colon
NCI/ADR-RES ovarian = tested on: NCI/ADR-RES ovarian
HL-60(TB) leukemia = tested on: HL-60(TB) leukemia
HCT-116 colon = tested on: HCT-116 colon
RXF 393 renal = tested on: RXF 393 renal
NCI-H226 lung = tested on: NCI-H226 lung
CCRF-CEM leukemia = tested on: CCRF-CEM leukemia
IGROV1 ovarian = tested on: IGROV1 ovarian
UO-31 renal = tested on: UO-31 renal
SK-OV-3 ovarian = tested on: SK-OV-3 ovarian
UACC-62 melanoma = tested on: UACC-62 melanoma
LOX IMVI melanoma = tested on: LOX IMVI melanoma
EKVX NSCLC = tested on: EKVX NSCLC
SF-268 CNS = tested on: SF-268 CNS
A549 NSCLC = tested on: A549 NSCLC
OVCAR-8 ovarian = tested on: OVCAR-8 ovarian
786-0 renal = tested on: 786-0 renal
DU-145 prostate = tested on: DU-145 prostate
A498 renal = tested on: A498 renal
SNB-75 CNS = tested on: SNB-75 CNS
SW-620 colon = tested on: SW-620 colon
SR leukemia = tested on: SR leukemia
SF-295 CNS = tested on: SF-295 CNS
SK-MEL-28 melanoma = tested on: SK-MEL-28 melanoma
RPMI-8226 leukemia = tested on: RPMI-8226 leukemia
HCT-15 colon = tested on: HCT-15 colon
MCF7 breast = tested on: MCF7 breast
MDA-MB-231 breast = tested on: MDA-MB-231 breast

`CN1CCN(Cc2ccc(NC(=O)c3cncc(C#Cc4cnc5ccc(NCCCO)nn45)c3)cc2C(F)(F)F)CC1` showed a GI50 (M14 melanoma) of 96.3 nM, a TGI (M14 melanoma) of 280 nM and a GI50 (MDA-MB-435) of 71.1 nM. The TGI (MDA-MB-435) was 608 nM, the GI50 (NCI-H460 lung) was 171 nM and the TGI (NCI-H460 lung) was 610 nM. It also gave a GI50 (T-47D breast) of 414 nM, a TGI (T-47D breast) of 3260 nM and a GI50 (HCC-2998 colon) of 222 nM. It also gave a TGI (HCC-2998 colon) of 1410 nM, a GI50 (TK-10 renal) of 384 nM and a TGI (TK-10 renal) of 2150 nM. For the same compound, the GI50 (ACHN renal) was 483 nM, the TGI (ACHN renal) was 1490 nM and the GI50 (OVCAR-3 ovarian) was 137 nM. It also gave a TGI (OVCAR-3 ovarian) of 795 nM, a GI50 (MALME-3M melanoma) of 97.5 nM and a TGI (MALME-3M melanoma) of 438 nM. It also gave a GI50 (UACC-257 melanoma) of 318 nM, a TGI (UACC-257 melanoma) of 1500 nM and a GI50 (U251 CNS) of 290 nM. It also gave a TGI (U251 CNS) of 1020 nM, a GI50 (SNB-19 CNS) of 304 nM and a TGI (SNB-19 CNS) of 2920 nM. For the same compound, the GI50 (KM12 colon) was 11.2 nM, the TGI (KM12 colon) was 876 nM and the GI50 (MOLT-4 leukemia) was 43.5 nM. The TGI (MOLT-4 leukemia) was 1620 nM, the GI50 (BT-549 breast) was 343 nM and the TGI (BT-549 breast) was 864 nM. For the same compound, the GI50 (HOP-92 NSCLC) was 21.1 nM, the TGI (HOP-92 NSCLC) was 124 nM and the GI50 (HT29 colon) was 108 nM. For the same compound, the TGI (HT29 colon) was 439 nM, the GI50 (OVCAR-5 ovarian) was 183 nM and the TGI (OVCAR-5 ovarian) was 1990 nM. It also gave a GI50 (NCI-H522 lung) of 68.5 nM, a TGI (NCI-H522 lung) of 247 nM and a GI50 (OVCAR-4 ovarian) of 166 nM. The TGI (OVCAR-4 ovarian) was 1330 nM, the GI50 (PC-3 prostate) was 243 nM and the TGI (PC-3 prostate) was 2820 nM. For the same compound, the GI50 (SN12C renal) was 90.7 nM, the TGI (SN12C renal) was 1200 nM and the GI50 (K-562 leukemia) was 5 nM. It also gave a TGI (K-562 leukemia) of 1840 nM, a GI50 (SK-MEL-5 melanoma) of 617 nM and a TGI (SK-MEL-5 melanoma) of 1270 nM. For the same compound, the GI50 (SK-MEL-2 melanoma) was 79 nM, the TGI (SK-MEL-2 melanoma) was 178 nM and the GI50 (SF-539 CNS) was 23.9 nM. For the same compound, the TGI (SF-539 CNS) was 125 nM, the GI50 (CAKI-1 renal) was 177 nM and the TGI (CAKI-1 renal) was 1220 nM. It also gave a GI50 (HS 578T breast) of 85.5 nM, a TGI (HS 578T breast) of 370 nM and a GI50 (HOP-62 NSCLC) of 150 nM. For the same compound, the TGI (HOP-62 NSCLC) was 999 nM, the GI50 (COLO 205 colon) was 77.5 nM and the TGI (COLO 205 colon) was 188 nM. The GI50 (NCI/ADR-RES ovarian) was 7220 nM, the TGI (NCI/ADR-RES ovarian) was 18200 nM and the GI50 (HL-60(TB) leukemia) was 73.3 nM. It also gave a TGI (HL-60(TB) leukemia) of 462 nM, a GI50 (HCT-116 colon) of 40.5 nM and a TGI (HCT-116 colon) of 221 nM. For the same compound, the GI50 (RXF 393 renal) was 169 nM, the TGI (RXF 393 renal) was 548 nM and the GI50 (NCI-H226 lung) was 62 nM. For the same compound, the TGI (NCI-H226 lung) was 311 nM, the GI50 (CCRF-CEM leukemia) was 24.8 nM and the TGI (CCRF-CEM leukemia) was 1810 nM. For the same compound, the GI50 (IGROV1 ovarian) was 104 nM, the TGI (IGROV1 ovarian) was 399 nM and the GI50 (UO-31 renal) was 1320 nM. The TGI (UO-31 renal) was 3690 nM, the GI50 (SK-OV-3 ovarian) was 308 nM and the TGI (SK-OV-3 ovarian) was 1590 nM. It also gave a GI50 (UACC-62 melanoma) of 210 nM, a TGI (UACC-62 melanoma) of 974 nM and a GI50 (LOX IMVI melanoma) of 59.9 nM. It also gave a TGI (LOX IMVI melanoma) of 270 nM, a GI50 (EKVX NSCLC) of 148 nM and a TGI (EKVX NSCLC) of 924 nM. The GI50 (SF-268 CNS) was 126 nM, the TGI (SF-268 CNS) was 850 nM and the GI50 (A549 NSCLC) was 202 nM. For the same compound, the TGI (A549 NSCLC) was 1110 nM, the GI50 (OVCAR-8 ovarian) was 204 nM and the TGI (OVCAR-8 ovarian) was 1030 nM. It also gave a GI50 (786-0 renal) of 299 nM, a TGI (786-0 renal) of 969 nM and a GI50 (DU-145 prostate) of 170 nM. For the same compound, the TGI (DU-145 prostate) was 1060 nM, the GI50 (A498 renal) was 314 nM and the TGI (A498 renal) was 1040 nM. For the same compound, the GI50 (SNB-75 CNS) was 26.3 nM, the TGI (SNB-75 CNS) was 137 nM and the GI50 (SW-620 colon) was 71.4 nM. For the same compound, the TGI (SW-620 colon) was 368 nM, the GI50 (SR leukemia) was 32.2 nM and the TGI (SR leukemia) was 859 nM. For the same compound, the GI50 (SF-295 CNS) was 457 nM, the TGI (SF-295 CNS) was 1720 nM and the GI50 (SK-MEL-28 melanoma) was 245 nM. It also gave a TGI (SK-MEL-28 melanoma) of 1000 nM, a GI50 (RPMI-8226 leukemia) of 206 nM and a TGI (RPMI-8226 leukemia) of 898 nM. It also gave a GI50 (HCT-15 colon) of 851 nM, a TGI (HCT-15 colon) of 2990 nM and a GI50 (MCF7 breast) of 43.7 nM. It also gave a TGI (MCF7 breast) of 404 nM, a GI50 (MDA-MB-231 breast) of 41.5 nM and a TGI (MDA-MB-231 breast) of 303 nM.
